Laboratory results taken from patent US4845109A, “Alkoxy-and phenoxy alkyl esters of 2,6-dimethyl-4-(2-difluoromethoxyphenyl)-1,4-dihydropyridine-3,5-carboxy lic acid” (priority 1988, dated 1989).

Experiments:
[1] = tested on: arterial pressure; test: Acute experiments on narcotized cats: reduction of arterial pressure (intravenous); type: in vivo; conditions: for ED30: Felis catus, read-out: ED30 (average dose that reduces the arterial pressure by 30%)
Procedure: In acute experiments on cats narcotized with glucochloralose and urethane (90 and 200 mg/kg, respectively, administered intraperitoneally), there were recorded arterial pressure from the common carotid artery, respiration and an ECG with standard lead II. The compounds under study were administered intravenously as a dimethylacetamide solution.
(§1) Average doses of the compounds under study that
(§2) reduce the arterial pressure in narcotized animals by 30%

[2] = tested on: vertebral artery; test: Blood circulation rate in vertebral artery of narcotized dogs; type: in vivo; conditions: intravenous
[3] = tested on: carotid artery; test: Blood circulation rate in carotid artery of narcotized dogs; type: in vivo; conditions: intravenous
[4] = tested on: coronary artery; test: Blood circulation rate in coronary artery of narcotized dogs; type: in vivo; conditions: intravenous
[5] = tested on: femoral artery; test: Blood circulation rate in femoral artery of narcotized dogs; type: in vivo; conditions: intravenous
[6] = tested on: cerebral vessels; conditions: background art; cited from earlier work
[7] = in vivo; conditions: mouse, ip
Text: Acute toxicity of the compounds involved compared
with the known drugs tested on albino mice
(intraperitoneal administration)

[8] = tested on: systolic arterial pressure; test: Hypotensive effect in spontaneously hypertensive rats (SHR), oral; type: in vivo; conditions: for Hypotensive effect compared with Niphedipin / Hypotensive potency: 3 and 10 mg/kg
[9] = background art, occasionally; cited from earlier work
[10] = tested on: arterial pressure; test: Hypotensive activity in narcotized rats: reduction of arterial pressure; type: in vivo; conditions: Rattus norvegicus; narcotized rats (urethane); read-out: ED30 (average dose that reduces the arterial pressure by 30%)
Text: as §1, §2

[11] = tested on: arteries supplying blood to the heart and brain; test: Systolic arterial pressure and blood circulation in arteries of heart and brain of narcotized dogs; type: in vivo; conditions: intravenous

COC(=O)C1=C(C)NC(C)=C(C(=O)OCCN(C)Cc2ccccc2)C1c1cccc([N+](=O)[O-])c1.Cl (stereo not drawn) [Nicardipin, 2,6-dimethyl-3-methoxy-carbonyl-4-(3-nitrophenyl)-5-[2(N-benzyl-N-methylamino)ethoxycarbonyl]-1,4-dihydropyridine hydrochloride, reference compound]
Persistence of hypotensive effect [1]: 8 min
ED30 [1]: 0.025 mg/kg
Blood circulation rate in vertebral artery, percentage increase ([2]; 0.001 mg/kg): 14%
Blood circulation rate in vertebral artery, persistence ([2]; 0.001 mg/kg): 6 min
Blood circulation rate in vertebral artery, percentage increase ([2]; 0.002 mg/kg): 40%
Blood circulation rate in vertebral artery, persistence ([2]; 0.002 mg/kg): 20 min
Blood circulation rate in carotid artery, percentage increase ([3]; 0.001 mg/kg): 14%
Blood circulation rate in carotid artery, persistence ([3]; 0.001 mg/kg): 6 min
Blood circulation rate in carotid artery, percentage increase ([3]; 0.002 mg/kg): 60%
Blood circulation rate in carotid artery, persistence ([3]; 0.002 mg/kg): 12 min
Blood circulation rate in coronary artery, percentage increase ([4]; 0.001 mg/kg): 12%
Blood circulation rate in coronary artery, persistence ([4]; 0.001 mg/kg): 5 min
Blood circulation rate in coronary artery, percentage increase ([4]; 0.002 mg/kg): 30%
Blood circulation rate in coronary artery, persistence ([4]; 0.002 mg/kg): 12 min
Blood circulation rate in femoral artery, percentage increase ([5]; 0.001 mg/kg): 10%
Blood circulation rate in femoral artery, persistence ([5]; 0.001 mg/kg): 5 min
Blood circulation rate in femoral artery, percentage increase ([5]; 0.002 mg/kg): 26%
Blood circulation rate in femoral artery, persistence ([5]; 0.002 mg/kg): 10 min
Activity [6]: inadequate activity
Vasodilation activity [6]: vasodilation activity preponderantly towards cerebral vessels
LD50 [7]: 225 mg/kg

COC(=O)C1=C(C)NC(C)=C(C(=O)OC)C1c1ccccc1[N+](=O)[O-] [Niphedipin, 2,6-dimethyl-3,5-dimethoxycarbonyl-4-(2-nitrophenyl)-1,4-dihydropyrine, reference compound]
Persistence of hypotensive effect [1]: 6 min
ED30 [1]: 0.02 mg/kg
Tachycardia [8]: tachycardia
Side effects [9]: dizziness and nausea

CCOCCOC(=O)C1=C(C)NC(C)=C(C(=O)OCCOCC)C1c1ccccc1OC(F)F [R = C2 H4 OC2 H5, 2,6-dimethyl-3,5-bis-(2-ethoxyethoxycarbonyl)-4-(2-difluoromethoxyphenyl)-1,4-dihydropyridine]
Persistence of hypotensive effect [1]: 6 min
ED30 [1]: 0.01 mg/kg
ED30 [10]: 0.018 mg/kg
Tachycardia [8]: not causative of tachycardia
Hypotensive effect compared with Niphedipin [8]: does not differ substantially
Hypotensive potency [8]: most markedly pronounced hypotensive potency
LD50 [7]: 2200 mg/kg

CCCOCCOC(=O)C1=C(C)NC(C)=C(C(=O)OCCOCCC)C1c1ccccc1OC(F)F [R = C2 H4 OC3 H7, 2,6-dimethyl-3,5-bis-(2-propoxyethoxycarbonyl)-4-(2-difluoromethoxyphenyl)-1,4-dihydropyridine]
Persistence of hypotensive effect [1]: 7 min
ED30 [1]: 0.0045 mg/kg
ED30 [10]: 0.008 mg/kg
Blood circulation rate in vertebral artery, percentage increase ([2]; 0.0005 mg/kg): 20%
Blood circulation rate in vertebral artery, persistence ([2]; 0.0005 mg/kg): 8 min
Blood circulation rate in vertebral artery, percentage increase ([2]; 0.001 mg/kg): 90%
Blood circulation rate in vertebral artery, persistence ([2]; 0.001 mg/kg): 18 min
Blood circulation rate in vertebral artery, percentage increase ([2]; 0.002 mg/kg): 110%
Blood circulation rate in vertebral artery, persistence ([2]; 0.002 mg/kg): 20 min
Blood circulation rate in carotid artery, percentage increase ([3]; 0.0005 mg/kg): 17%
Blood circulation rate in carotid artery, persistence ([3]; 0.0005 mg/kg): 5 min
Blood circulation rate in carotid artery, percentage increase ([3]; 0.001 mg/kg): 60%
Blood circulation rate in carotid artery, persistence ([3]; 0.001 mg/kg): 15 min
Blood circulation rate in carotid artery, percentage increase ([3]; 0.002 mg/kg): 100%
Blood circulation rate in carotid artery, persistence ([3]; 0.002 mg/kg): 20 min
Blood circulation rate in coronary artery, percentage increase ([4]; 0.0005 mg/kg): 10%
Blood circulation rate in coronary artery, persistence ([4]; 0.0005 mg/kg): 5 min
Blood circulation rate in coronary artery, percentage increase ([4]; 0.001 mg/kg): 30%
Blood circulation rate in coronary artery, persistence ([4]; 0.001 mg/kg): 8 min
Blood circulation rate in coronary artery, percentage increase ([4]; 0.002 mg/kg): 50%
Blood circulation rate in coronary artery, persistence ([4]; 0.002 mg/kg): 12 min
Blood circulation rate in femoral artery, percentage increase ([5]; 0.0005 mg/kg): 0%
Blood circulation rate in femoral artery, percentage increase ([5]; 0.001 mg/kg): 10%
Blood circulation rate in femoral artery, persistence ([5]; 0.001 mg/kg): 8 min
Blood circulation rate in femoral artery, percentage increase ([5]; 0.002 mg/kg): 25%
Blood circulation rate in femoral artery, persistence ([5]; 0.002 mg/kg): 10 min
Intensity and duration of effect on blood circulation rate compared with Nicardipin [11]: much more potent
Hypotensive effect compared with Niphedipin [8]: does not differ substantially
Hypotensive potency [8]: most markedly pronounced hypotensive potency
LD50 [7]: 450 mg/kg

CC1=C(C(=O)OCCOc2ccccc2)C(c2ccccc2OC(F)F)C(C(=O)OCCOc2ccccc2)=C(C)N1 [R = C2 H4 OC6 H5, 2,6-dimethyl-3,5-bis-(2phenoxyethoxycarbonyl)-4-(2difluoromethoxyphenyl)-1,4-dihydropyridine]
Persistence of hypotensive effect [1]: 7 min
ED30 [1]: 0.02 mg/kg
ED30 [10]: 0.03 mg/kg
Hypotensive effect compared with Niphedipin [8]: does not differ substantially
Hypotensive potency [8]: most markedly pronounced hypotensive potency
LD50 [7]: 790 mg/kg

COCCOC(=O)C1=C(C)NC(C)=C(C(=O)OCCOC)C1c1ccccc1OC(F)F [R = C2 H4 OCH3, 2,6-dimethyl-3,5-bis-(2-methoxyethoxycarbonyl)-4-(2-difluoromethoxyphenyl)-1,4-dihydropyridine]
Persistence of hypotensive effect [1]: 3 min
ED30 [1]: 0.045 mg/kg
ED30 [10]: 0.04 mg/kg
LD50 [7]: 1130 mg/kg

COCC(C)OC(=O)C1=C(C)NC(C)=C(C(=O)OC(C)COC)C1c1ccccc1OC(F)F (stereo not drawn) [R = CH(CH3)CH2 OCH3, 2,6-dimethyl-3,5-bis-[(1-methyl-2-methoxy)-ethoxycarbonyl]-4-(2-difluoromethoxyphenyl)-1,4-dihydropyridine]
Persistence of hypotensive effect [1]: 10 min
ED30 [1]: 0.038 mg/kg
LD50 [7]: 2500 mg/kg
